Measured values as given in patent US8501720B2, “Method for treatment of dysmenorrhea” (Bayer Pharma AG, priority 2004, dated 2013).

How the values were obtained:
[1] = Hershberger test; cited from earlier work
[2] = pharmacokinetics of drospirenone; assay type: in vivo; settings: i.e. after at most a week
Text: For example, in the present study, there was, a significant reduction of edema and breast tenderness among long-cycle users in comparison with the women on the conventional 21-day monthly cycle. Thus, in the event of these symptoms being present, a regimen of 42-126 days could be recommended.

[3] = in vivo; cited from earlier work

- time to steady state [2]: about four
SMILES: C[C@]12CCC(=O)C=C1[C@@H]1C[C@@H]1[C@H]1[C@@H]3[C@@H]4C[C@@H]4[C@@]4(CCC(=O)O4)[C@@]3(C)CC[C@@H]12 [drospirenone]
- antiandrogenic properties compared with chlormadinone acetate [1]: exceed those of chlormadinone acetate
- antiandrogenic properties relative to cyproterone acetate [1]: approximately one-third
- half-life [3]: about 27 h
